Results on 11 compounds are retold here after article PMC9784689, “Bioactivity Profiling of In Silico Predicted Linear Toxins from the Ants Myrmica rubra and Myrmica ruginodis” (Toxins, 2022).

One data set relates to MDCK II cells. The settings on record: 48 h; for Normalized data, cell viability: MDCK II, 100 µM peptides, CellTiter-Glo, normalized to DMSO control = 100% viability.
The subject of data set [1] is Escherichia coli, Staphylococcus aureus, Staphylococcus epidermidis, Pseudomonas aeruginosa (strains 50071 and 1117), Micrococcus luteus, Listeria …. The experiment in a line: Antibacterial activity, statements for the whole panel of seven strains. Type of data set: cell-based. The conditions noted are these: 100 µM, after 48 h, MH II medium, 37 °C, OD600, triplicate.

The test system of data set [2] is Influenza B/Malaysia/2506/04 (Victoria lineage) in MDCK II cells. Type of data set: cell-based, influenza B virus. The conditions noted are these: B/Mal, 100 µM peptides, 48 h.
Data set [3] concerns Influenza A/Hamburg/5/09 (H1N1) in MDCK II cells. Type of data set: cell-based, influenza A virus. The settings on record: 100 µM peptides, 48 h.
In data set [4] the test system is Influenza A/Hessen/1/03 (H3N2) in MDCK II cells. Type of data set: cell-based, influenza A virus. The settings on record: 100 µM peptides, 48 h.
Data set [5] concerns Influenza B/Massachusetts/71 (Yamagata lineage) in MDCK II cells. Type of data set: cell-based, influenza B virus. The settings on record: B/Mass, 100 µM peptides, 48 h.
Data set [6] relates to larvae of the greater wax moth (Galleria mellonella). The experiment in a line: Insecticidal activity, injection into larvae. Type of data set: in vivo. The conditions noted are these: G. mellonella larvae, 10 specimens; for Injected larvae surviving: injection of 5 µL of 10 mM stock in DMSO/water, at least 72 h.

Read-outs that look alike come from different tables or passages of the source. No end group written: not given here.

In the case of `C[C@H](CCC(=O)O)C[C@H](C)C[C@H](C)C(=O)/C=C(\O)[C@H](C)C[C@H](C)C/C=C/[C@@H](C)[C@@H](O)[C@@H](C)[C@@H](O)C[C@@H]1CC[C@@](C)([C@H]2CC[C@@](C)([C@@H](C)O)O2)O1` [Ionomycin, ionomycin, reference compound], the “Cytotoxicity (cell viability), in words” value in the data set with MDCK II cells (MDCK II cells, 100 µM, 1% DMSO, CellTiter-Glo luminescence, triplicate) is on record as “high cytotoxicity”. The “Normalized data, cell viability” value was determined as 0.2057% in the data set on MDCK II cells (replicate 1), 0.1877% with MDCK II cells (replicate 2) and 0.1629% in the data set with MDCK II cells (replicate 3).
As to “IDPKVLESLA-NH2 (C-terminus assumed) [U-MYRTX-Mrug2a]”, the “Inhibition of bacterial growth, in words” value in data set [1] is given as “no significant inhibition of bacterial growth”. Moreover, the “Normalized to Aprotinin =1 (protection)” value is 0.03996 in data set [2] (replicate 1); 0.0417 in data set [2] (replicate 2); 0.07904 in data set [2] (replicate 3); -0.00333 in data set [3] (replicate 1); 0.002305 in data set [3] (replicate 2); -0.007789 in data set [3] (replicate 3). For the same compound, the “Normalized to Aprotinin =1 (protection)” value in data set [4] (replicate 1) is given as 0.06351; in data set [4] (replicate 2) it was 0.02791; in data set [4] (replicate 3), 0.04387; in data set [5] (replicate 1), 0.01558; in data set [5] (replicate 2), 0.02606; in data set [5] (replicate 3) it was 0.02908.
With “IDPKLLESLA-NH2 (C-terminus assumed) [U-MYRTX-Mrub2a]”, the “Inhibition of bacterial growth, in words” value in data set [1] was “no significant inhibition of bacterial growth”. In addition, the “Normalized to Aprotinin =1 (protection)” value in data set [2] (replicate 1) came to 0.08852; in data set [2] (replicate 2), 0.1729; in data set [2] (replicate 3), 0.1453; in data set [3] (replicate 1), 0.07403; in data set [3] (replicate 2), 0.07306; in data set [3] (replicate 3) it was 0.0814. Moreover, the “Normalized to Aprotinin =1 (protection)” value in data set [4] (replicate 1) turned out to be 0.09958; in data set [4] (replicate 2) it was 0.07892; in data set [4] (replicate 3), 0.1212; in data set [5] (replicate 1), 0.008341; in data set [5] (replicate 2), 0.1091; in data set [5] (replicate 3), 0.1749.
With “IDSKAIKSLQ-NH2 (C-terminus assumed) [U-MYRTX-Mrub4b/Mrug3a]”, the “Inhibition of bacterial growth, in words” value in data set [1] is “no significant inhibition of bacterial growth”. Further, the “Normalized to Aprotinin =1 (protection)” value was found to be 0.05327 in data set [2] (replicate 1); 0.08884 in data set [2] (replicate 2); 0.1216 in data set [2] (replicate 3); 0.02574 in data set [3] (replicate 1); 0.02301 in data set [3] (replicate 2); 0.02813 in data set [3] (replicate 3). Moreover, the “Normalized to Aprotinin =1 (protection)” value is listed as 0.06966 in data set [4] (replicate 1); 0.08008 in data set [4] (replicate 2); 0.07436 in data set [4] (replicate 3); 0.03499 in data set [5] (replicate 1); 0.02676 in data set [5] (replicate 2); 0.02366 in data set [5] (replicate 3).
Turning to aprotinin [reference compound], the “Normalized to Aprotinin =1 (protection)” value in data set [2] (replicate 1), in data set [2] (replicate 2), in data set [2] (replicate 3), in data set [3] (replicate 1), in data set [3] (replicate 2) and in data set [3] (replicate 3) was 1 each time. The “Normalized to Aprotinin =1 (protection)” value in data set [4] (replicate 1), in data set [4] (replicate 2), in data set [4] (replicate 3), in data set [5] (replicate 1), in data set [5] (replicate 2) and in data set [5] (replicate 3) was 1 in each case.
`CCO` [ethanol, reference compound]: the “Larvae killed (mortality)” value in data set [6] (injection (peptides 5 µL of 10 mM stock; ethanol control 10 µL), 72 h) is on record as 70%.
Consider “IDSDALKSLQ-NH2 (C-terminus assumed) [U-MYRTX-Mrub4a/Mrug7a]”, for which the Injected larvae surviving in data set [6] turned out to be 80%. Moreover, the “Inhibition of bacterial growth, in words” value in data set [1] is “no significant inhibition of bacterial growth”. Also, the “Normalized to Aprotinin =1 (protection)” value in data set [2] (replicate 1) is given as 0.06158; in data set [2] (replicate 2), 0.1088; in data set [2] (replicate 3), 0.1041; in data set [3] (replicate 1), 0.0395; in data set [3] (replicate 2), 0.05779; in data set [3] (replicate 3) it was 0.05022. In addition, the “Normalized to Aprotinin =1 (protection)” value in data set [4] (replicate 1) is recorded as 0.05779; in data set [4] (replicate 2), 0.05634; in data set [4] (replicate 3), 0.06216; in data set [5] (replicate 1) it was 0.01827; in data set [5] (replicate 2), 0.02714; in data set [5] (replicate 3), 0.01553.
Consider “IDPKVLESLL-NH2 (C-terminus assumed) [U-MYRTX-Mrug2b]”, for which the Injected larvae surviving in data set [6] turned out to be 80%. The “Inhibition of bacterial growth, in words” value in data set [1] is recorded as “no significant inhibition of bacterial growth”. Moreover, the “Normalized to Aprotinin =1 (protection)” value in data set [2] (replicate 1) came to 0.03893; in data set [2] (replicate 2), 0.02764; in data set [2] (replicate 3) it was 0.1043; in data set [3] (replicate 1), 0.05063; in data set [3] (replicate 2), 0.0441; in data set [3] (replicate 3), 0.04545. For the same compound, the “Normalized to Aprotinin =1 (protection)” value in data set [4] (replicate 1) amounted to 0.0328; in data set [4] (replicate 2) it was 0.05462; in data set [4] (replicate 3) it was 0.05537; in data set [5] (replicate 1), 0.01653; in data set [5] (replicate 2), 0.01885; in data set [5] (replicate 3) it was 0.02698.
In the case of “IDRSEKTERE-NH2 (C-terminus assumed) [U-MYRTX-Mrub3a]”, in data set [1], the “Inhibition of bacterial growth, in words” value is “no significant inhibition of bacterial growth”. The “Normalized to Aprotinin =1 (protection)” value in data set [2] (replicate 1) is on record as 0.04706; in data set [2] (replicate 2), 0.1383; in data set [2] (replicate 3) it was 0.1034; in data set [3] (replicate 1), 0.05191; in data set [3] (replicate 2), 0.05042; in data set [3] (replicate 3), 0.0422. The “Normalized to Aprotinin =1 (protection)” value in data set [4] (replicate 1) stood at 0.1064; in data set [4] (replicate 2) it was 0.05676; in data set [4] (replicate 3) it was 0.1027; in data set [5] (replicate 1) it was 0.02341; in data set [5] (replicate 2) it was 0.02308; in data set [5] (replicate 3), 0.03331.
On to “KDSDSLKSFQ-NH2 (C-terminus assumed) [U-MYRTX-Mrug6a]”, for which the “Inhibition of bacterial growth, in words” value in data set [1] is “no significant inhibition of bacterial growth”. Besides, the “Normalized to Aprotinin =1 (protection)” value in data set [2] (replicate 1) turned out to be 0.0613; in data set [2] (replicate 2), 0.07745; in data set [2] (replicate 3), 0.114; in data set [3] (replicate 1), 0.02785; in data set [3] (replicate 2), 0.0161; in data set [3] (replicate 3), 0.02305. For the same compound, the “Normalized to Aprotinin =1 (protection)” value in data set [4] (replicate 1) amounted to 0.08543; in data set [4] (replicate 2) it was 0.06156; in data set [4] (replicate 3), 0.07217; in data set [5] (replicate 1), 0.007926; in data set [5] (replicate 2), 0.0129; in data set [5] (replicate 3) it was 0.01821.
Consider “IDVYFILHLP-NH2 (C-terminus assumed) [U-MYRTX-Mrug4b]”, for which the “Normalized to Aprotinin =1 (protection)” value in data set [2] (replicate 1) is recorded as 0.03762; in data set [2] (replicate 2), 0.02626; in data set [2] (replicate 3) it was 0.09882; in data set [3] (replicate 1), -0.007928; in data set [3] (replicate 3), 0.0256; in data set [4] (replicate 1) it was 0.06728. Moreover, the “Normalized to Aprotinin =1 (protection)” value is 0.05537 in data set [4] (replicate 2); 0.07138 in data set [4] (replicate 3); 0.01102 in data set [5] (replicate 1); 0.01257 in data set [5] (replicate 2); 0.01675 in data set [5] (replicate 3).
